Assay results: ChEMBL document CHEMBL1140017, “Anti-AIDS agents 72. Bioisosteres (7-carbon-DCKs) of the potent anti-HIV lead DCK” (Bioorg Med Chem Lett, 2007)

Assays:
[1] = Therapeutic index, IC50 for H9 cells to EC50 for HIV; assay type: cell-based; conditions: human, read-out: Ratio IC50/EC50
[2] = tested on: H9; assay: Cytotoxicity against H9 cells assessed as growth inhibition; assay type: cell-based; conditions: Homo sapiens
[3] = tested on: Human immunodeficiency virus; assay: Antiviral activity against HIV replication in H9 cells; assay type: functional, organism-based; conditions: Human immunodeficiency virus 1, H9

EC50 [3] [nM]	SMILES	selectivity ratio [1]	IC50 [2] [nM]
68	CC12CCC(C(=O)O[C@H]3CCc4ccc5ccc(=O)oc5c4[C@H]3OC(=O)C34CCC(C)(C(=O)O3)C4(C)C)(OC1=O)C2(C)C (stereo partly specified)	841	57200
13.7	Cc1cn([C@H]2C[C@H](N=[N+]=[N-])[C@@H](CO)O2)c(=O)[nH]c1=O [ZIDOVUDINE]	36500	
< 390	Cc1cc(=O)oc2c3c(ccc12)CC(C)(C)[C@H](OC(=O)C12CCC(C)(C(=O)O1)C2(C)C)[C@@H]3OC(=O)C12CCC(C)(C(=O)O1)C2(C)C (stereo partly specified)	> 100	> 39400
83	Cc1cc(=O)oc2c3c(ccc12)CC[C@H](OC(=O)C12CCC(C)(C(=O)O1)C2(C)C)[C@@H]3OC(=O)C12CCC(C)(C(=O)O1)C2(C)C (stereo partly specified)	659	54400
